US20240376085A1 (Janssen Pharmaceutica NV, priority 2021, published 2024)

Columns and labels:
IL-17A : IL-17RA binding [1] = target: T1, IL-17A : IL-17RA binding (Homo sapiens, UniProt Q16552, K93Q); assay: IL-17A(FLAG-tagged):IL-17RA(His-tagged) binding disruption Eu-HTRF assay, Protocol 1; conditions: FLAG-IL-17A 2.5 nM at 2x final concentration; average if tested more than once
T1 construct: Name: IL-17A-Flag
How it was run: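 IC50 came from a one-site competition fit of the acceptor/donor (665/620 nm) HTRF ratio. His-tagged IL-17RA, Eu-anti-FLAG and D2-anti-His were added after a 1 h rt compound preincubation with FLAG-tagged IL-17A dimer in PBS/0.01% Triton X-100, followed by 2 h at rt before reading.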

IL-17A : IL-17RA binding [2] = target: T1, IL-17A : IL-17RA binding; assay: IL-17A(FLAG-tagged):IL-17RA(His-tagged) binding disruption Eu-HTRF assay, Protocol 2; conditions: FLAG-IL-17A 1 nM at 2x final concentration; average if tested more than once
Description: An antibody directed against the FLAG tag of IL-17A (SEQ ID NO: 1) is labeled with the HTRF donor chromophore (Europium-cryptate). IL-17A is present as a dimer that is “locked into” this quaternary structure due to the formation of loop-spanning […] disulfide bridges. The construct of IL-17RA used in the assay excludes the […] portion of the receptor and is fused to a C-terminal 10×His tag (SEQ ID NO:2). An antibody directed against the His tag of the IL-17RA chimera is labeled with the HTRF acceptor chromophore (“D2”). The fluorescence-resonance energy transfer (FRET) depends on the vicinity of the donor chromophore to the acceptor, and interruption of the binding between the IL-17A and IL-17RA causes the reduction/loss of FRET. Therefore, this assay allows to evaluate the compound effect on the binding IL-17A and IL-17RA by monitoring the fluorescence intensity of donor vs acceptor. The assay was run using either Protocol 1 or Protocol 2 as described below.
Protocol 2. 40 nl of 2-fold serial diluted compound solution for total 22 dilution points is added into each well of a 1536-well, white, low-volume, non-binding plate (Greiner #782904), then 2 μl of FLAG tagged IL-17A at 2× final concentration (1 nM) in solution of PBS+0.01% Triton-X100 is added to each well. The assay plate is briefly centrifuged then incubated for 1 h at rt. A mixed solution is prepared containing 2×5 nM 10HIS×IL-17RA, 2×2.5 nM Eu-anti-FLAG (CISBIO), 2×5 nM D2-anti-HIS (CISBIO) in PBS+0.01% Triton-X100+200 mM Potassium Fluoride (Sigma 60238) and 2 μl of mix is added to each well of the assay plate. The plate is briefly centrifuged then incubated for 2 h at rt. The HTRF intensities at the wavelength of donor (615 nm) and acceptor (665 nm) are measured using BMG Pherastar. The ratio between intensities at two wavelengths is calculated and plotted against the compound concentration and the data is fitted to a one-site competition model to yield IC50 of the compound.

[3] = tested on: IL-17A-induced G-CSF production in human normal keratinocyte (NHK); assay: NHK assay: IL-17A-induced G-CSF production in normal human keratinocytes; type: cell-based; conditions: Homo sapiens, Keratinocyte, 24 h, IL-17A 5 ng/mL, average if tested more than once
How it was run: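 Compound titrations are first mixed with recombinant human IL-17A for 1 h at room temperature. The mixture goes onto adult normal human keratinocytes (final IL-17A 5 ng/mL, 5% FBS, 0.2% DMSO) for 24 h at 37 °C. Secreted G-CSF is then measured by HTRF and IC50 fitted.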

T1 sequence (Q16552 with tags, fused parts or gaps K93Q): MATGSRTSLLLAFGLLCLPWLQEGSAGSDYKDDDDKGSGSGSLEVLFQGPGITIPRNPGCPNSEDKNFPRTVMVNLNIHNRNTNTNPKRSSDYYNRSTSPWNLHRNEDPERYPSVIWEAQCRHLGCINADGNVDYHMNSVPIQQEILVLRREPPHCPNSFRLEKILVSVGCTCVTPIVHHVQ

Structure (SMILES)	IC50 (IL-17A : IL-17RA binding [1])	IC50 (IL-17A : IL-17RA binding [2])	IC50 [3]
Cc1nonc1C(=O)N[C@@H](CO[C@@H](C)C(F)(F)F)c1nc2ccc([C@H](NC(=O)CC3CC(F)(F)C3)C3CC3)cc2[nH]1 (relative stereo) [Example 151, N—((R*)-1-(6-((R)-Cyclopropyl(2-(3,3-difluorocyclobutyl)acetamido)methyl)-1H-benzo[d]imidazol-2-yl)-2-(((S*)-1,1,1-trifluoropropan-2-yl)oxy)ethyl)-4-methyl-1,2,5-oxadiazole-3-carboxamide]	< 50 nM	50 to 100 nM	> 100 nM
COC[C@H](NC(=O)CC1CC(F)(F)C1)c1ccc2nc([C@H](COC(C)(C)C(F)(F)F)NC(=O)c3nonc3C3CC3)[nH]c2c1 (relative stereo) [Example 164, 4-Cyclopropyl-N—((R)-1-(5-((R*)-1-(2-(3,3-difluorocyclobutyl)acetamido)-2-methoxyethyl)-1H-benzo[d]imidazol-2-yl)-2-((1,1,1-trifluoro-2-methylpropan-2-yl)oxy)ethyl)-1,2,5-oxadiazole-3-carboxamide]	< 50 nM	< 50 nM	< 50 nM
C[C@@H](NC(=O)CC1CC(F)(F)C1)c1ccc2nc(C(COC(C)(C)C(F)(F)F)NC(=O)c3nonc3C3CC3)[nH]c2c1 (single isomer, unassigned) [Example 152, 4-Cyclopropyl-N—((R*)-1-(6-((R)-1-(2-(3,3-difluorocyclobutyl)acetamido)ethyl)-1H-benzo[d]imidazol-2-yl)-2-((1,1,1-trifluoro-2-methylpropan-2-yl)oxy)ethyl)-1,2,5-oxadiazole-3-carboxamide]	< 50 nM	< 50 nM	< 50 nM
CC(C)n1nccc1C(=O)N[C@H](c1nc2ccc([C@@H](C)NC(=O)CCC(F)(F)F)cc2[nH]1)C1CCC(F)(F)CC1 [Example 122, N—((S)-(4,4-Difluorocyclohexyl)(6-((R)-1-(4,4,4-trifluorobutanamido)ethyl)-1H-benzo[d]imidazol-2-yl)methyl)-1-isopropyl-1H-pyrazole-5-carboxamide]	> 100 nM	> 100 nM	< 50 nM
C[C@@H](OC1CC1)[C@H](NC(=O)c1nonc1C1CC1)c1nc2cc([C@@H](COC3CC3)NC(=O)CC3CC(F)(F)C3)ccc2[nH]1 [Example 276, N-((1R,2R)-2-Cyclopropoxy-1-(5-((S)-2-cyclopropoxy-1-(2-(3,3-difluorocyclobutyl)acetamido)ethyl)-1H-benzo[d]imidazol-2-yl)propyl)-4-cyclopropyl-1,2,5-oxadiazole-3-carboxamide]	–	50 to 100 nM	< 50 nM
